Test results taken from US6372797B1, “Treatment of menstrual function” (Knoll Pharmaceutical Company, priority 1999, dated 2002).

Tests used:
[1] = target: [3H]Noradenaline reuptake; experiment: in vitro [3H]noradrenaline reuptake inhibition in rat brain tissue; assay type: biochemical; conditions: means of ≧ 3 separate determinations
[2] = target: [3H]Dopamine reuptake; experiment: in vitro [3H]dopamine reuptake inhibition in rat brain tissue; assay type: biochemical; conditions: means of ≧ 3 separate determinations

CC(NC(C)(C)C)C(=O)c1cccc(Cl)c1 (stereo not shown) [Bupropion]
Ki [1]: 2590 nM | Ki [2]: 409 nM

COc1ccc(C(CN(C)C)C2(O)CCCCC2)cc1 (stereo not shown) [Venlafaxine]
Ki [1]: 196 nM | Ki [2]: 2590 nM
